{"source": "patent US8618082B2", "about": "“Lupeol anti-tumor agent and uses thereof” (Wisconsin Alumni Research Foundation, priority 2004, dated 2013)", "key": {"epidermal COX-2 protein": {"tested_on": "epidermal COX-2 protein", "assay": "TPA-induced epidermal COX-2 protein expression (western blot)", "format": "in vivo, mouse", "experimental": "FIG. 4. Inhibitory effect of Lupeol on TPA-induced epidermal ODC, iNOS and COX-2 protein expression in CD-1 mice: At different times after treatment, the animals were sacrificed, epidermal protein lysate was prepared, and ODC and COX-2 protein expression were determined. Equal loading of protein was confirmed by stripping the immunoblot and reprobing it for β-actin. The immunoblots shown here are representative of three independent experiments with similar results. The values above each lane indicate relative density of the band normalized to β-actin.\nThe animals were shaved on the dorsal side of the skin, divided into four groups and treated topically on the shaved area with either 0.4 ml vehicle (acetone), or TPA (3.2 nmol/0.4 ml acetone/animal, v/v), or Lupeol (1 or 2 mg/0.2 ml acetone/animal, w/v) followed 30 min later with TPA (3.2 nmol/0.2 ml acetone/animal). Animals were sacrificed at different times point i.e. 6, 12, 24 and 48 h post TPA treatment. The epidermis was separated from the whole skin and homogenized in 0.1 M Tris-HCl buffer (pH 7.2) using a Polytron tissue homogenizer (Brinkmann Instruments, Westbury, N.Y., USA) at 100,000×g supernatant, and microsomal fractions were prepared as described earlier (Katiyar and Mukhtar, 1997). The sample of 6 h treatment group was used to assess the ODC activity as this time point has previously been shown for optimal induction of the enzyme (Katiyar er al., 1996).\nEpidermis from the whole skin was separated as described earlier (Katiyar et al., 1999) and was homogenized in ice-cold lysis buffer [50 mM Tris-HCl, 150 mM NaCl, 1 mM EGTA, 1 mM EDTA, 20 mM NaF, 100 mM Na3VO4, 0.5% NP-40, 1% Triton X-100, 1 mM PMSF (pH 7.4)] with freshly added protease inhibitor cocktail, Protease Inhibitor Cocktail Set III (Calbiochem, La Jolla, Calif., USA). The homogenate was then centrifuged at 14,000×g for 25 minutes at 4° C. and the supernatant (total cell lysate) was collected, aliquoted and stored at −80° C. For the preparation of nuclear lysate, 0.2 g of the epidermis was homogenized in 1 ml of ice-cold phosphate-buffered saline (pH 7.6) and centrifuged at 12,000×g for 5 min at 4° C. […] The protein content in the lysates was measured by DC BioRad assay (BioRad Laboratories, Hercules, Calif.) as per the manufacturer's protocol.\nFor western blot analysis, 40 μg of the protein was resolved over 8-12% polyacrylamide gels and transferred to a nitrocellulose membrane. […] This was followed by incubation with anti-mouse or anti-rabbit secondary antibody horse-radish peroxidase (Amersham Life Sciences, Inc., USA) for 1 h and then washed several times and detected by chemiluminescence ECL kit, (Amersham Life Sciences, Inc., USA) and autoradiography using XAR-5 film obtained from Eastman Kodak Co. (Rochester, N.Y., USA). […]"}, "[1]": {"tested_on": "NFκB-DNA binding activity", "assay": "NFκB-DNA binding by electrophoretic mobility shift assay (EMSA)", "format": "in vivo", "settings": "prior application of Lupeol to mouse skin", "experimental": "(b) At different times after treatment, the animals were sacrificed, nuclear lysates were prepared, and DNA binding was determined by […] as described under ‘Materials and Methods’. C1, C2, and C3 refer to inter experimental controls, where C1 represents biotin-EBNA (epistein barr virus nuclear antigen) control DNA, C2 represents Biotin-EBNA control DNA and EBNA extract and C3 represents Biotin-EBNA control DNA and EBNA extract plus 200 fold molar excess of EBNA DNA.\nEpidermis from the whole skin was separated as described earlier (Katiyar et al., 1999) and was homogenized in ice-cold lysis buffer [50 mM Tris-HCl, 150 mM NaCl, 1 mM EGTA, 1 mM EDTA, 20 mM NaF, 100 mM Na3VO4, 0.5% NP-40, 1% Triton X-100, 1 mM PMSF (pH 7.4)] with freshly added protease inhibitor cocktail, Protease Inhibitor Cocktail Set III (Calbiochem, La Jolla, Calif., USA). […] The protein content in the lysates was measured by DC BioRad assay (BioRad Laboratories, Hercules, Calif.) as per the manufacturer's protocol.\nEMSA for NFκB was performed using Lightshift™ chemiluminescent EMSA kit (Pierce, Rockford, Ill., USA) by following the manufacturer's protocol. […] The biotin end-labeled DNA was detected using streptavidin-horseradish peroxidase conjugate and a chemiluminescent substrate. […]"}, "[2]": {"tested_on": "pro-caspases-8 and -9 in LNCaP cells", "assay": "Pro-caspases-8 and -9 expression in LNCaP cells (western blot)", "format": "cell-based, human", "experimental": "FIG. 13 depicts effect of Lupeol treatment on protein expression of pro-caspases-8 and -9 in LNCaP cells. Cells were treated with only specified concentrations of Lupeol for 48 h, harvested and total cell lysates were prepared. Expression of pro-caspases-8 and -9 were determined by western blot analysis. Equal loading was confirmed by stripping immunoblots and reprobing them for β-actin. The immunoblots shown here are representative of three independent experiments with similar results."}}, "data": [{"molecule": "C=C(C)[C@@H]1CC[C@]2(C)CC[C@]3(C)[C@H](CC[C@@H]4[C@@]5(C)CC[C@H](O)C(C)(C)[C@@H]5CC[C@]43C)[C@@H]12", "note": "[Lupeol, Lup-20(29)-en-3β-ol]", "values": [{"measurement": "inhibition in TPA-caused increased epidermal COX-2 protein expression", "setting": "epidermal COX-2 protein; Lupeol 1 mg/animal", "result": 40, "unit": "%"}, {"measurement": "TPA-induced COX-2 protein level", "setting": "epidermal COX-2 protein; Lupeol 2 mg/animal", "result": "restored the level of TPA-induced COX-2 protein almost to its basal level"}, {"measurement": "epidermal COX-2 protein expression after Lupeol alone", "setting": "epidermal COX-2 protein; Lupeol alone 2 mg", "result": "did not produce any change"}, {"measurement": "TPA-induced epidermal NFκB DNA binding activity", "setting": "[1]", "result": "significantly inhibited"}, {"measurement": "activation of Caspase-8 and 9 proteins", "setting": "[2]", "result": "induces the activation"}, {"measurement": "expression of inactive (pro-) caspases-8 and -9", "setting": "[2]; 48 h", "result": "causes disappearance of inactive caspases"}]}]}
